For one assay, the system named is Pmel17 mRNA. In words: Evaluation of lung metastases by Pmel17 mRNA in lungs of B16F10 tumor-bearing mice. The format is in vivo. The note with it: stabilizer I.P., GM-CSF I.T., vs vehicle control; FIG. 5. On the procedure: Lung metastases were evaluated by detection of mRNA for melanocyte-specific proteins within the lungs of tumor-bearing mice. B16F10 tumor-bearing mice were treated with GM-CSF and/or the disclosed HIF-2α stabilizer, as depicted in FIG. 3. At the time of sacrifice, lungs were excised and flash-frozen in liquid nitrogen. Frozen lungs were homogenized in liquid nitrogen and the pulverized material was dissolved in TRIzol™ reagent (Invitrogen). […] The melanocyte-specific Pmel17 was detected by nested PCR using a modification of the protocol described by Tsukamoto et al. For the initial reaction, 30 cycles of PCR were carried out (95° C. for 1 minute, 58° C. for 1 min, 72° C. for 1 min) in a 20 μL reaction volume containing 2 μL of cDNA. […] Data were analyzed according to the comparative threshold method and normalized against the GAPDH internal control transcript. Results are semi-quantitative and represent the fold difference in transcript levels in vehicle-treated control mice as compared with levels in mice treated with the disclosed HIF-2α stabilizer and/or GM-CSF.
Lung metastases were evaluated by detection of mRNA for melanocyte-specific proteins within the lungs of tumor-bearing mice. […] Data were analyzed according to the comparative threshold method and normalized against the β-actin internal control transcript. […]

For assay [1], the system named is phosphoglycerate kinase (PGK) mRNA. Nature of the assay: PGK mRNA expression (qPCR) in HIF-1α−/− fibroblasts. The format is cell-based, murine. The note with it: hypoxic conditions (1% O2), 1, 10 and 100 μM, vs. hypoxia control, FIG. 2B. How it is done:
Total RNA was isolated from tissues and cells by using TRIzol™ Reagent (Invitrogen) and the RNeasy kit (Qiagen), respectively. 1 μg RNA was used for reverse transcription using SuperScript II First-Strand Synthersis System (Invitrogen). cDNA's were amplified in a SYR Green or TaqMan Universal Master Mix (Applied Biosystems). Quantitative PCR (qPCR) was performed on ABI Prism 7700 sequence detection system. PCR conditions are: 10 min at 95° C., 40 cycles of 15 seconds at 95° C. and 1 minute at 60° C. The relative amount of mRNA was calculated after normalization to β-actin.
Cells were cultured in DMEM (#11965-092, Invitrogen) supplemented with 10% fetal bovine serum (Invitrogen), 100 U/mL penicillin and […] streptomycin. For glucose deprivation, DMEM without glucose (#11966-025, Invitrogen) was used.
Mouse embryonic fibroblasts (MEFs) were isolated from E12.5 embryos and immortalized by stable transfection with SV40 large T antigen.
In general terms: In qPCR the cycle at which signal appears reflects the starting amount.

For another assay, the system named is sVEGFR-1. Nature of the assay: sVEGFR-1 production by human peripheral blood monocytes (ELISA, real-time PCR). The format is cell-based. The note with it: monocytes with 100 ng/mL GM-CSF plus 10 μM compound vs GM-CSF alone, FIG. 11B. On the procedure:
Human peripheral blood mononuclear cells (PBMCs) were isolated from fresh peripheral blood leukocyte source packs (American Red Cross, Columbus Ohio) by density gradient centrifugation over Lymphocyte Separation Medium (Cellgro). Monocytes were purified from total PBMCs by layering over FBS. Monocytes were cultured in endotoxin-free RPMI-1640 supplemented with 1% fetal bovine serum (FBS), 0.1% human serum albumin (HSA), and 10 μg/mL of the endotoxin inhibitor polymyxin B. In some experiments, freshly isolated monocytes were differentiated into macrophages by three-day culture in media containing 10% FBS, 1% PSA (penicillin G sodium, streptomycin sulfate, and amphotericin B), and 20 ng/mL M-CSF. Macrophages were serum-starved for 2 hours prior to stimulation. Monocytes or monocyte-derived macrophages were treated for 24 hours with 10 ng/mL GM-CSF, 10 μM disclosed HIF-2α stabilizer, or an equivalent volume of the vehicle controls (PBS or DMSO, respectively). Cell-free culture supematants were harvested and analyzed for VEGF or sVEGFR-1 by ELISA (R&D Systems).
Human monocytes were left untreated or were stimulated with 100 ng/mL GM-CSF at normoxia or at 0.5% O2. At various time-points, cells were harvested in Trizol reagent (Invitrogen) and RNA was extracted in chloroform and then purified using the RNeasy Minikit (Qiagen). In murine studies, organs harvested at the time of euthanasia were flash-frozen in liquid nitrogen, pulverized in liquid nitrogen, and then dissolved in Trizol. cDNA was generated from 1 μg of RNA using the Superscript First Strand Synthesis System (Invitrogen) and used for real-time PCR using previously described primers and SYBR Green PCR Master Mix (Applied Biosciences), according to the manufacturer's instructions. Data were analyzed according to the comparative threshold method and normalized against the β-actin internal control transcript. Results are semi-quantitative and represent the fold difference in transcript levels in a particular sample as compared with levels in untreated cells from the same donor.
(In an ELISA, binding on a coated surface is turned into a signal by an enzyme label.)

The record followed here is patent US20170105981A1, “METHODS FOR STABILIZING HYPOXIA INDUCIBLE FACTOR-2 ALPHA AS A METHOD FOR TREATING CANCER” (The Ohio State Innovation Foundation, priority 2011, published 2017).

`O=C(O)CNC(=O)c1ncc(-c2cccc(F)c2)cc1O` [disclosed HIF-2α stabilizer, {[5-(3-Fluorophenyl)-3-hydroxypyridine-2-carbonyl]amino} acetic acid]: the “relative metastasis to the lung (Pmel17 mRNA expression)” value with Pmel17 mRNA is “reduced metastasis”. Moreover, the “PGK mRNA (relative amount)” value in assay [1] is recorded as “dramatic reduction”. The “sVEGFR-1 production, protein level” value in the assay on sVEGFR-1 (p=0.007) is recorded as “increased significantly”. In the assay on sVEGFR-1 (p=0.033), the “sVEGFR-1 production, transcript level” value was “increased significantly”.
